Laboratory results as given in patent publication US5336768A, “Antibacterial cephalosporin compounds” (Hoffmann-La Roche Inc., priority 1988, dated 1994).
Counter-ions that a name gives are not always drawn. Like-named read-outs stand apart in the source and are kept apart here.

Legend:
Experiment in all cases: In vitro MIC, Agar Dilution Method
Assay type in all cases: cell-based
E. coli TEM-1 = details: Escherichia coli, TEM1, read-out: In Vitro MIC
From the text: (§1) The in vitro activity of the compounds of the present invention as measured by the Minimum Inhibitory Concentration (MIC) in micrograms/ml utilizing the Agar Dilution Method against a variety of Gram-positive and Gram-negative organisms, is as follows: […]

Prot. mirabilis 90 = tested on: Prot. mirabilis 90
From the text: as §1

Str. pyogenes 4 = details: Streptococcus pyogenes
From the text: as §1

Enter. cloacae P99 = details: Enterobacter cloacae
From the text: as §1

Ps. aeruginosa 765 = tested on: Ps. aeruginosa 765
From the text: as §1

Ps. aeruginosa 8780 = details: Pseudomonas aeruginosa
From the text: as §1

E. coli 257 = details: Escherichia coli
From the text: as §1

K. pneumoniae A = details: Klebsiella pneumoniae, read-out: In Vitro MIC
From the text: as §1

Staph. aureus 67 = details: Staphylococcus aureus
From the text: as §1

Cit. freundii BS-16 = details: Citrobacter freundii, BS16
From the text: as §1

Str. faecalis ATCC 29212 = details: Enterococcus faecalis, ATCC29212
From the text: as §1

Staph. aureus 10598 = tested on: Staph. aureus 10598
From the text: as §1

Staph. aureus ATCC 29213 = details: Staphylococcus aureus
From the text: as §1

Prot. Vulqaris 1028 BC = details: read-out: In Vitro MIC
From the text: as §1

Ps. aeruginosa 18SH = details: Pseudomonas aeruginosa, read-out: In Vitro MIC
From the text: as §1

Ps. aeruginosa 5712 = details: Pseudomonas aeruginosa
From the text: as §1

Staph. aureus Smith = details: Staphylococcus aureus, read-out: In Vitro MIC
From the text: as §1

Staph. aureus 753 = tested on: Staph. aureus 753
From the text: as §1

Enter. cloacae 5699 = details: Enterobacter cloacae
From the text: as §1

Ser. marcescens 1071 = details: Serratia marcescens
From the text: as §1

E. coli ATCC 25922 = details: Escherichia coli, ATCC25922
From the text: as §1

Prot. vulgaris ATCC 6380 = details: Proteus vulgaris
From the text: as §1

Str. pneumoniae 6301 = details: Streptococcus pneumoniae
From the text: as §1

[1] = tested on: Ps. aeruginosa ATCC 27853; details: Pseudomonas aeruginosa
From the text: as §1

Ser. marcescens SM = details: Serratia marcescens, read-out: In Vitro MIC
From the text: as §1

SMILES | MIC (E. coli TEM-1) | MIC (Str. pyogenes 4) | MIC (Enter. cloacae P99) | MIC (Ps. aeruginosa 8780) | MIC (E. coli 257) | MIC (Staph. aureus 67) | MIC (Cit. freundii BS-16) | MIC (Str. faecalis ATCC 29212) | MIC (Ps. aeruginosa 5712) | MIC (Enter. cloacae 5699) | MIC (Ser. marcescens 1071) | MIC (E. coli ATCC 25922) | MIC (Str. pneumoniae 6301) | also measured
CCn1cc(C(=O)O)c(=O)c2cc(F)c(N3CCN(C(=O)OCC4=C(C(=O)O)N5C(=O)[C@@H](NC(=O)/C(=N\OC)c6csc(N)n6)[C@H]5SC4)CC3)cc21 [Compound A, [6R-[6α,7β(Z)]]-7-[[(2-amino-4-thiazolyl) (methoxyimino)acetyl]amino]-3-[[[[4-(3-carboxy-1-ethyl-6-fluoro-1,4-dihydro-4-oxo-7-quinolinyl) -1-piperazinyl]carbonyl]oxy]methyl]-8-oxo-5-thia-1-azabicyclo[4.2.0]oct-2-ene-2-carboxylic acid sodium salt] | 0.25 mg/L | 0.0157 mg/L | 0.5 mg/L | 4 mg/L | 0.25 mg/L | 4 mg/L | 0.5 mg/L | 0.5 mg/L | 16 mg/L | 0.5 mg/L | 0.5 mg/L | 0.25 mg/L | 0.0157 mg/L | MIC (Prot. mirabilis 90; Proteus mirabilis, 90, read-out: In Vitro MIC): 0.25 mg/L; MIC (Ps. aeruginosa 765; Pseudomonas aeruginosa, Ps. aeruginosa 765, Agar Dilution Method, read-out: In Vitro MIC): 8 mg/L; MIC (K. pneumoniae A; K. pneumoniae A, Agar Dilution Method): 0.5 mg/L; MIC (Staph. aureus 10598; Staphylococcus aureus, Staph. aureus 10598, Agar Dilution Method, read-out: In Vitro MIC): 2 mg/L; MIC (Staph. aureus ATCC 29213; ATCC29213, Staph. aureus ATCC 29213, Agar Dilution Method, read-out: In Vitro MIC): 2 mg/L; MIC (Prot. Vulqaris 1028 BC; Prot. Vulqaris 1028 BC, Agar Dilution Method): 0.125 mg/L; MIC (Ps. aeruginosa 18SH; Ps. aeruginosa 18SH, Agar Dilution Method): 4 mg/L; MIC (Staph. aureus Smith; Staph. aureus Smith, Agar Dilution Method): 1 mg/L; MIC (Staph. aureus 753; Staphylococcus aureus, Staph. aureus 753, Agar Dilution Method, read-out: In Vitro MIC): 4 mg/L; MIC (Prot. vulgaris ATCC 6380; ATCC6380, Prot. vulgaris ATCC 6380, Agar Dilution Method, read-out: In Vitro MIC): 0.0625 mg/L; MIC ([1]; ATCC27853, Ps. aeruginosa ATCC 27853, Agar Dilution Method, read-out: In Vitro MIC): 8 mg/L; MIC (Ser. marcescens SM): 0.25 mg/L
CO/N=C(\C(=O)N[C@@H]1C(=O)N2C(C(=O)O)=C(COC(=O)N3CCN(c4cc5c(cc4F)c(=O)c(C(=O)O)cn5C4CC4)CC3)CS[C@H]12)c1csc(N)n1 [Compound B, [6R-[6α,7β(Z)]]-7-[[(2-amino-4-thiazolyl) (methoxyimino)acetyl]amino]-3-[[[[4-(3-carboxy-1-cyclopropyl-6-fluoro-1,4-dihydro-4-oxo-7-quinolinyl)-1-piperazinyl]carbonyl]oxy]methyl]-8-oxo-5-thia-1-azabicyclo[4.2.0]oct-2-ene-2-carboxylic acid sodium salt] | 0.0625 mg/L | 0.0157 mg/L | 0.0313 mg/L | 2 mg/L | 0.0625 mg/L | 2 mg/L | 0.125 mg/L | 0.25 mg/L | 4 mg/L | 0.125 mg/L | 0.25 mg/L | 0.0625 mg/L | 0.0157 mg/L | MIC (Prot. mirabilis 90; Proteus mirabilis, Prot. mirabilis 90, Agar Dilution Method, read-out: In Vitro MIC): 0.25 mg/L; MIC (Ps. aeruginosa 765; Pseudomonas aeruginosa, 765, read-out: In Vitro MIC): 1 mg/L; MIC (K. pneumoniae A): 0.0625 mg/L; MIC (Staph. aureus 10598; Staphylococcus aureus, 10598, read-out: In Vitro MIC): 1 mg/L; MIC (Staph. aureus ATCC 29213; ATCC29213, read-out: In Vitro MIC): 1 mg/L; MIC (Prot. Vulqaris 1028 BC): 0.0625 mg/L; MIC (Ps. aeruginosa 18SH; 18SH): 1 mg/L; MIC (Staph. aureus Smith): 0.5 mg/L; MIC (Staph. aureus 753; Staphylococcus aureus, 753, read-out: In Vitro MIC): 1 mg/L; MIC (Prot. vulgaris ATCC 6380; ATCC6380, read-out: In Vitro MIC): 0.0625 mg/L; MIC ([1]; ATCC27853, read-out: In Vitro MIC): 1 mg/L; MIC (Ser. marcescens SM; Ser. marcescens SM, Agar Dilution Method): 0.125 mg/L
